# What was measured:
# [1] = tested on: Staphylococcus aureus-SMITH (GC 4543); assay: Acute lethal infection in mice (ED50); type: in vivo; details: female CD-1 mice, intraperitoneal challenge, intravenous dose 30 min. after infection, 7 day survival ratios
# Description: The therapeutic effects of glycopeptide antibiotics of Formula I are determined against acute lethal infections with S. aureus (strain Smith), a penicillin resistant strain of S. pneumoniae (strain GC 1894), and a vancomycin resistant strain of E. fecalis (strain GC 6189 and GC 2246). Female mice, CD-1 (Charles River Laboratories), 20 +1-2 gm, are challenged by intraperitoneal injection of sufficient bacteria (suspended in Trypticase Soy Broth or hog gastric mucin) to kill non-treated controls within 24-48 hr. Antibacterial agents, contained in 0.2 mL of saline or 5% dextrose solution, are administered intravenously 30 min. after infection. Five mice are treated at each dose level. The 7 day survival ratios from 3 separate tests are pooled for calculation of median effective dose (ED50).
# Staphylococcus sp. = assay: In vitro antibacterial evaluation: minimum inhibitory concentration (MIC), broth dilution method; type: cell-based; details: for MIC Staphylococcus aureus (ATCC 29213): strain ATCC 29213; for MIC Staphylococcus aureus (GC 1131): strain GC 1131; for MIC Staphylococcus aureus (GC 3051): strain GC 3051; for MIC Staphylococcus aureus (GC 3053): strain GC 3053; for MIC Staphylococcus aureus (GC 4541): strain GC 4541; for MIC Staphylococcus aureus (GC 4542): strain GC 4542; for MIC Staphylococcus aureus-SMITH (GC 4543): strain GC 4543; for MIC Staphylococcus aureus (GC 4544): strain GC 4544; for MIC Staphylococcus aureus (GC 4545): strain GC 4545; for MIC Staphylococcus haemolyticus (GC 4546): strain GC 4546; for MIC Coagulase Negative Staphylococcus (GC 4547): strain GC 4547; for MIC Coagulase Negative Staphylococcus (GC 4548): strain GC 4548; for MIC Coagulase Negative Staphylococcus (GC 4549): strain GC 4549; for MIC Coagulase Negative Staphylococcus (GC 4551): strain GC 4551; for MIC Coagulase Negative Staphylococcus (GC 6257): strain GC 6257
# Summary of the method: (§1)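 An MIC is reported for each organism as the least concentration giving inhibition, using broth dilution over 64-0.06 μg/mL with a 5×10^5 CFU/mL inoculum.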
# Enterococcus sp. = assay: as above; type: cell-based; details: broth dilution, 5×10^5 CFU/mL, 18 hours at 35° C.
# Summary of the method: as §1
# Streptococcus sp. = assay: as above; type: cell-based; details: broth dilution, 5×10^5 CFU/mL, 18 hours at 35° C.
# Summary of the method: as §1
# Escherichia coli = assay: as above; type: cell-based; details: 5×10^5 CFU/mL, 18 hours at 35° C.
# Summary of the method: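 MIC read as lowest drug level preventing visible growth. Organisms at 5×10^5 CFU/mL were exposed to a 64-0.06 μg/mL dilution series in Muller-Hinton II […] following NCCLS broth dilution standard M7-A2.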
# [2] = broth dilution, 18 hours at 35° C.
structure (smiles),measurement,setting,value
"CC(c1ccccc1)C1NC(=O)CNC(=O)C(CO)NC(=O)C(C(O)C2CNC(=N)N2C2OC(CO)C(O)C(O)C2O)NC(=O)C(C(O)C2CNC(=N)N2)NC(=O)C(Cc2ccc(OC3OC(CO)C(OC4OC5COC(Cc6ccc(Cl)cc6)OC5C(O)C4O)C(O)C3O)cc2)NC1=O (stereo not drawn) [Example 120, Cyclo[glycyl-β-methylphenylalanyl-O-[4-O-[4,6-O-(4-chlorophenethylidene)hexopyranosyl]-hexopyranosyl]tyrosyl-3-(2-iminoimidazolidin-4-yl)seryl-3-(3-hexopyranosyl-2-iminoimidazolidin-4-yl)serylseryl]]","median effective dose (ED50), Staphylococcus aureus-SMITH (GC 4543)",[1],0.06 mg/kg
same,MIC Staphylococcus aureus (ATCC 29213),Staphylococcus sp.,<0.5 µg/mL
same,MIC Staphylococcus aureus (ATCC 29213),Staphylococcus sp.; [2],<0.5 µg/mL
same,MIC Staphylococcus aureus (GC 1131),Staphylococcus sp.,<0.5 µg/mL
same,MIC Staphylococcus aureus (GC 1131),Staphylococcus sp.; [2],<0.5 µg/mL
same,MIC Staphylococcus aureus (GC 3051),Staphylococcus sp.,<0.5 µg/mL
same,MIC Staphylococcus aureus (GC 3051),Staphylococcus sp.; [2],<0.5 µg/mL
same,MIC Staphylococcus aureus (GC 3053),Staphylococcus sp.,1 µg/mL
same,MIC Staphylococcus aureus (GC 3053),Staphylococcus sp.; [2],1 µg/mL
same,MIC Staphylococcus aureus (GC 4541),Staphylococcus sp.,<0.5 µg/mL
same,MIC Staphylococcus aureus (GC 4541),Staphylococcus sp.; [2],<0.5 µg/mL
same,MIC Staphylococcus aureus (GC 4542),Staphylococcus sp.,<0.5 µg/mL
same,MIC Staphylococcus aureus (GC 4542),Staphylococcus sp.; [2],<0.5 µg/mL
same,MIC Staphylococcus aureus-SMITH (GC 4543),Staphylococcus sp.; 18 hours at 35° C.,<0.5 µg/mL
same,MIC Staphylococcus aureus-SMITH (GC 4543),Staphylococcus sp.; [2],<0.5 µg/mL
same,MIC Staphylococcus aureus (GC 4544),Staphylococcus sp.,<0.5 µg/mL
same,MIC Staphylococcus aureus (GC 4544),Staphylococcus sp.; [2],<0.5 µg/mL
same,MIC Staphylococcus aureus (GC 4545),Staphylococcus sp.,<0.5 µg/mL
same,MIC Staphylococcus aureus (GC 4545),Staphylococcus sp.; [2],<0.5 µg/mL
same,MIC Staphylococcus haemolyticus (GC 4546),Staphylococcus sp.,<0.5 µg/mL
same,MIC Staphylococcus haemolyticus (GC 4546),Staphylococcus sp.; [2],<0.5 µg/mL
same,MIC Coagulase Negative Staphylococcus (GC 4547),Staphylococcus sp.,1 µg/mL
same,MIC Coagulase Negative Staphylococcus (GC 4547),Staphylococcus sp.; [2],1 µg/mL
same,MIC Coagulase Negative Staphylococcus (GC 4548),Staphylococcus sp.,<0.5 µg/mL
same,MIC Coagulase Negative Staphylococcus (GC 4548),Staphylococcus sp.; [2],<0.5 µg/mL
same,MIC Coagulase Negative Staphylococcus (GC 4549),Staphylococcus sp.,<0.5 µg/mL
same,MIC Coagulase Negative Staphylococcus (GC 4549),Staphylococcus sp.; [2],<0.5 µg/mL
same,MIC Coagulase Negative Staphylococcus (GC 4551),Staphylococcus sp.,<0.5 µg/mL
same,MIC Coagulase Negative Staphylococcus (GC 4551),Staphylococcus sp.; [2],<0.5 µg/mL
same,MIC Coagulase Negative Staphylococcus (GC 6257),Staphylococcus sp.,<0.5 µg/mL
same,MIC Coagulase Negative Staphylococcus (GC 6257),Staphylococcus sp.; [2],<0.5 µg/mL
same,MIC Enterococccus avium (GC 4558),Enterococcus sp.,1 µg/mL
same,MIC Enterococccus faecalis (ATCC 29212),Enterococcus sp.,1 µg/mL
same,MIC Enterococccus faecalis (GC 2691),Enterococcus sp.,1 µg/mL
same,MIC Enterococccus faecalis (GC 3059),Enterococcus sp.,1 µg/mL
same,MIC Enterococccus faecalis (GC 4552),Enterococcus sp.,1 µg/mL
same,MIC Enterococccus faecalis (GC 4553),Enterococcus sp.,1 µg/mL
same,MIC Enterococccus faecalis (GC 4554),Enterococcus sp.,1 µg/mL
same,MIC Enterococccus faecalis (GC 6189),Enterococcus sp.,1 µg/mL
same,MIC Enterococccus faecium (GC 2243),Enterococcus sp.,1 µg/mL
same,MIC Enterococccus faecium (GC 4556),Enterococcus sp.,1 µg/mL
same,MIC Enterococccus faecium (GC 4557),Enterococcus sp.,1 µg/mL
same,MIC Enterococcus faecalis (GC 2242),Enterococcus sp.,1 µg/mL
same,MIC Streptococcus agalactiae (GC 4564),Streptococcus sp.,<0.5 µg/mL
same,MIC Streptococcus pneumoniae (GC 1894),Streptococcus sp.,<0.5 µg/mL
same,MIC Streptococcus pneumoniae (GC 4565),Streptococcus sp.,<0.5 µg/mL
same,MIC Streptococcus pneumonine (ATCC 6301),Streptococcus sp.,<0.5 µg/mL
same,MIC Streptococcus pyogenes (GC 4563),Streptococcus sp.,<0.5 µg/mL
same,MIC Escherichia coli (ATCC 25922),Escherichia coli,16 µg/mL
same,MIC Escherichia coli (GC 4559),Escherichia coli,16 µg/mL
same,MIC Escherichia coli (GC 4560),Escherichia coli,<0.5 µg/mL

# — patent US8247211B2, “Glycopeptide antibiotics” (American Cyanamid Company, priority 2001, dated 2012)
